Source: ChEMBL document CHEMBL4828715, “Discovery, Structure-Activity Relationships, and In Vivo Evaluation of Novel Aryl Amides as Brain Penetrant Adaptor Protein 2-Associated Kinase 1 (AAK1) Inhibitors for the Treatment of Neuropathic Pain” (J Med Chem, 2021)
Activity calls are given as the source filed them. The calls are words filed in the database; no cut-off is given here.

Legend:
[1] = target: T1, AP2-associated protein kinase 1 (Homo sapiens, UniProt Q2M2I8); assay: Inhibition of AAK1 (unknown origin)
T1 sequence (Q2M2I8 whole entry): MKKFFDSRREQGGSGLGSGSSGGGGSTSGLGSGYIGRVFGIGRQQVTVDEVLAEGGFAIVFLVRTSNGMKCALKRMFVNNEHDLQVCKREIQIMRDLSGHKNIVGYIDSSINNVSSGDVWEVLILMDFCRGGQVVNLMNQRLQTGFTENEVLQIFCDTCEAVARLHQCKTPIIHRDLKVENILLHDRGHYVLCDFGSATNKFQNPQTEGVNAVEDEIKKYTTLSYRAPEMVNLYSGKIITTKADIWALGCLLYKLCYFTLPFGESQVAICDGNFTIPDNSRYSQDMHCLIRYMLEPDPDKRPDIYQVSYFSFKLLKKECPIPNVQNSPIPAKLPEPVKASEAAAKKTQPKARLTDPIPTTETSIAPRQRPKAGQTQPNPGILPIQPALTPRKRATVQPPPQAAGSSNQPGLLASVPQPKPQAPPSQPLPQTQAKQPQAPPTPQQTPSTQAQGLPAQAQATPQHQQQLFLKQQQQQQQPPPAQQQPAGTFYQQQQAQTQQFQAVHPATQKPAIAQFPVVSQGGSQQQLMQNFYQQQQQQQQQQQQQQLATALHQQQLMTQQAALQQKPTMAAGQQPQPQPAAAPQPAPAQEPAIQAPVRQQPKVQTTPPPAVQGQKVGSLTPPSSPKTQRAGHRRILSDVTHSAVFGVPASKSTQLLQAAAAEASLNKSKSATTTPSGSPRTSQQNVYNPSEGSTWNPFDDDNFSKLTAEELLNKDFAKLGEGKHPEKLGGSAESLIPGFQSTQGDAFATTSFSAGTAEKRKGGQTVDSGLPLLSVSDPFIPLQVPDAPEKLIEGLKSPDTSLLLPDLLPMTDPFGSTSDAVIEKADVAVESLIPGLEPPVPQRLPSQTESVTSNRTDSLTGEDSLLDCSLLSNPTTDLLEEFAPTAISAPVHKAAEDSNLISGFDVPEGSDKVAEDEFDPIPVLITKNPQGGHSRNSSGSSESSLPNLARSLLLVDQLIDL

[2] = Permeability of the compound across basolateral to apical membrane in human Caco-2 cells incubated for 2 hrs by LC-MS/MS analysis; assay type: ADME, cell-based; conditions: Caco-2, read-out: permeability
[3] = Permeability of the compound across apical to basolateral membrane in human Caco-2 cells incubated for 2 hrs by LC-MS/MS analysis
[4] = target: T1, AP2-associated protein kinase 1; assay: Inhibition of recombinant GST-Xa-tagged human AAK1 (30 to 330 residues) using 5-FAM-labelled Alla-KEEQSQITSQVTGQIGWR-NH2 peptide as substrate incubated for 3 hrs in presence of ATP by electrophoretic analysis
[5] = Metabolic stability in human liver microsomes assessed as parent compound remaining at 0.5 uM incubated for 10 mins in presence of NADPH by LC-MS/MS analysis; assay type: ADME, Microsome; conditions: read-out: Stability
[6] = Metabolic stability in rat liver microsomes assessed as parent compound remaining at 0.5 uM incubated for 10 mins in presence of NADPH by LC-MS/MS analysis; assay type: ADME, Microsome; conditions: read-out: Stability
[7] = Metabolic stability in mouse liver microsomes assessed as parent compound remaining at 0.5 uM incubated for 10 mins in presence of NADPH by LC-MS/MS analysis; assay type: ADME, Microsome; conditions: read-out: Stability
[8] = target: T1, AP2-associated protein kinase 1; assay: Inhibition of human AAK1 expressed in HEK293 cells assessed as suppression of AP2 phosphorylation measured after 3 hrs by Western blot analysis; assay type: cell-based
[9] = Protein binding in human plasma assessed as unbound fraction at 10 uM measured after 5 hrs by equilibrium dialysis method
[10] = Protein binding in rat plasma assessed as unbound fraction at 10 uM measured after 5 hrs by equilibrium dialysis method
[11] = Protein binding in mouse plasma assessed as unbound fraction at 10 uM measured after 5 hrs by equilibrium dialysis method
[12] = Efflux ratio of permeability across basolateral to apical membrane over apical to basolateral membrane in human Caco-2 cells
[13] = Drug concentration in C57BL6 mouse plasma at 30 mg/kg, sc measured after 2 hrs by LC-MS/MS analysis; assay type: ADME, organism-based
[14] = Drug concentration in C57BL6 mouse brain at 30 mg/kg, sc measured after 2 hrs by LC-MS/MS analysis; assay type: ADME, organism-based; conditions: read-out: Ct
[15] = Ratio of drug concentration in brain to plasma in C57BL6 mouse at […], sc; assay type: ADME; conditions: read-out: BPR
[16] = Permeability of the compound at pH 5.5 incubated for 4 hrs by PAMPA-based UV spectrophotometry; assay type: ADME; conditions: read-out: permeability
[17] = Permeability of the compound at pH 7.4 incubated for 4 hrs by PAMPA-based UV spectrophotometry; assay type: ADME; conditions: for Papp at 4 h: PAMPA, pH 7.4, read-out: permeability
[18] = test system: Rattus norvegicus; assay: Antinociceptive activity in Sprague-Dawley rat model of chronic constriction injury-induced neuropathic pain assessed as reduction in paw withdrawal latency at 100 mg/kg, po by Von Frey test; assay type: functional, organism-based
[19] = test system: Rattus norvegicus; assay: Antinociceptive activity in Sprague-Dawley rat model of chronic constriction injury-induced neuropathic pain assessed as reduction in thermal hyperalgesia 100 mg/kg, po by Von Frey test relative to control; assay type: functional; design: scale not given: the % may be the effect or the level left
[20] = test system: Rattus norvegicus; assay: Antinociceptive activity in Sprague-Dawley rat model of chronic constriction injury-induced neuropathic pain assessed as reduction in mechanical hyperalgesia 100 mg/kg, po by Von Frey test relative to control; assay type: functional; design: scale not given: the % may be the effect or the level left
[21] = test system: Rattus norvegicus; assay: Reversal of chronic constriction injury-induced cold allodynia in Sprague-Dawley rat model of neuropathic pain at 100 mg/kg, po measured up to 180 mins relative to control; assay type: functional; conditions: time min <=180
[22] = test system: Rattus norvegicus; assay: Reversal of chronic constriction injury-induced mechanical allodynia in Sprague-Dawley rat model of neuropathic pain at 100 mg/kg, sc measured up to 180 mins relative to control; assay type: functional; conditions: time min <=180
[23] = Induction of motor coordination impairment in Sprague-Dawley rat at 100 mg/kg, po measured up to 180 mins by rotarod test; assay type: organism-based; conditions: in vivo, 3 h
[24] = Toxicity in Sprague-Dawley rat assessed as drowsiness at 100 mg/kg, po; assay type: organism-based; conditions: in vivo
[25] = Toxicity in Sprague-Dawley rat assessed as dizziness at 100 mg/kg, po; assay type: organism-based; conditions: in vivo
[26] = Toxicity in Sprague-Dawley rat assessed as unsteadiness at 100 mg/kg, po; assay type: organism-based; conditions: in vivo

Cc1nccc2c1c(=O)n(C)c1cc(OC[C@@H](N)CC(C)C)c(C#N)cc21
IC50 [1]: 0.7 nM

COc1cc(NC(=O)[C@H](N)CC(C)C)ccc1-c1cn[nH]c1
Papp B→A at 2 h [2]: 14.9 ×10⁻⁶ cm/s
Papp A→B at 2 h [3]: 4 ×10⁻⁶ cm/s
IC50 [4]: 15 nM
remaining at 10 min, 0.5 µM [5]: 85%
remaining at 10 min, 0.5 µM [6]: 74%
remaining at 10 min, 0.5 µM [7]: 34%
IC50 [8]: 190 nM
fraction unbound at 5 h, 10 µM [9]: 0.18
fraction unbound at 5 h, 10 µM [10]: 0.1
fraction unbound at 5 h, 10 µM [11]: 0.2
efflux ratio [12]: 3.3
concentration at 2 h [13]: 29.9 µM
concentration at 2 h [14]: 5.7 µM
Kp [15]: 0.21

COc1cc(NC(=O)[C@H](N)CC(C)C)ccc1-c1cnco1
Papp B→A at 2 h [2]: 15.1 ×10⁻⁶ cm/s
Papp A→B at 2 h [3]: 13.7 ×10⁻⁶ cm/s
IC50 [4]: 12 nM
remaining at 10 min, 0.5 µM [5]: 89%
remaining at 10 min, 0.5 µM [6]: 75%
remaining at 10 min, 0.5 µM [7]: 64%
IC50 [8]: 60 nM
Papp at 4 h [16]: 56.9 ×10⁻⁶ cm/s
Papp at 4 h [17]: 58.4 ×10⁻⁶ cm/s
fraction unbound at 5 h, 10 µM [9]: 0.063
fraction unbound at 5 h, 10 µM [10]: 0.023
fraction unbound at 5 h, 10 µM [11]: 0.086
concentration at 2 h [13]: 7.3 µM
concentration at 2 h [14]: 6.8 µM
Kp [15]: 1.17

NCC1(CC(=O)O)CCCCC1 [GABAPENTIN]
Activity [18]: Active
Activity [19]: 89%
Activity [20]: 32%
Activity [21]: 54%
Activity [22]: 34%
Activity [23]: Toxic
Activity [24]: Toxic
Activity [25]: Toxic
Activity [26]: Toxic

COCCc1ccc(OCC(O)CNC(C)C)cc1 (stereo not drawn) [METOPROLOL]
Papp at 4 h [16]: 10.2 ×10⁻⁶ cm/s
permeability ([17]; pampa, pH 7.4, 4 h): 83.5 10^-6 cm/s

CC(C(=O)O)c1cccc(C(=O)c2ccccc2)c1 (stereo not drawn) [KETOPROFEN]
Papp at 4 h [16]: 34.2 ×10⁻⁶ cm/s
Papp at 4 h [17]: 1.1 ×10⁻⁶ cm/s

C[C@H]1O[C@@H](O[C@H]2[C@@H](O)C[C@H](O[C@H]3[C@@H](O)C[C@H](O[C@H]4CC[C@@]5(C)[C@H](CC[C@@H]6[C@@H]5C[C@@H](O)[C@]5(C)[C@@H](C7=CC(=O)OC7)CC[C@]65O)C4)O[C@@H]3C)O[C@@H]2C)C[C@H](O)[C@@H]1O [DIGOXIN]
Papp B→A at 2 h [2]: 10 ×10⁻⁶ cm/s

COc1cc(NC(=O)[C@H](N)CC(C)C)ccc1-c1cncs1
IC50 [4]: 190 nM
remaining at 10 min, 0.5 µM [5]: 75%
remaining at 10 min, 0.5 µM [6]: 76%
remaining at 10 min, 0.5 µM [7]: 55%

CC(C)C[C@@H](N)C(=O)Nc1ccc(-c2ccncc2)cc1
IC50 [4]: 15 nM
remaining at 10 min, 0.5 µM [5]: 80%
remaining at 10 min, 0.5 µM [6]: 75%
remaining at 10 min, 0.5 µM [7]: 66%

COc1cc(NC(=O)[C@@H]2NCCC[C@@H]2C(C)C)ccc1-c1cnco1
Papp B→A at 2 h [2]: 11.9 ×10⁻⁶ cm/s
Papp A→B at 2 h [3]: 16.7 ×10⁻⁶ cm/s
IC50 [4]: 10 nM
remaining at 10 min, 0.5 µM [5]: 60%
remaining at 10 min, 0.5 µM [6]: 42%
remaining at 10 min, 0.5 µM [7]: 2%
IC50 [8]: 105 nM
Papp at 4 h [16]: 47.1 ×10⁻⁶ cm/s
Papp at 4 h [17]: 43.5 ×10⁻⁶ cm/s
fraction unbound at 5 h, 10 µM [9]: 0.19
fraction unbound at 5 h, 10 µM [10]: 0.059
fraction unbound at 5 h, 10 µM [11]: 0.028

COc1cc(NC(=O)Cc2ccccc2)ccc1-c1cnco1
IC50 [4]: 430 nM
remaining at 10 min, 0.5 µM [5]: 78%
remaining at 10 min, 0.5 µM [6]: 70%
remaining at 10 min, 0.5 µM [7]: 70%

COc1cc(NC(=O)[C@H](N)CC2CCC2)ccc1-c1cnco1
IC50 [4]: 33 nM
remaining at 10 min, 0.5 µM [5]: 70%
remaining at 10 min, 0.5 µM [6]: 58%
remaining at 10 min, 0.5 µM [7]: 53%

COc1cc(NC(=O)[C@H]2CCCCN2)ccc1-c1cnco1
IC50 [4]: 550 nM
remaining at 10 min, 0.5 µM [5]: 94%
remaining at 10 min, 0.5 µM [6]: 37%
remaining at 10 min, 0.5 µM [7]: 1%

COc1cc(NC(=O)[C@H](N)CC2CC2)ccc1-c1cnco1
IC50 [4]: 45 nM
remaining at 10 min, 0.5 µM [5]: 100%
remaining at 10 min, 0.5 µM [6]: 74%
remaining at 10 min, 0.5 µM [7]: 79%

CCC[C@H](N)C(=O)Nc1ccc(-c2cnco2)c(OC)c1
IC50 [4]: 350 nM
remaining at 10 min, 0.5 µM [5]: 70%
remaining at 10 min, 0.5 µM [6]: 31%
remaining at 10 min, 0.5 µM [7]: 46%

CC(C)C1CCCNC1C(=O)Nc1ccc(-c2ccncc2)cc1 (racemic)
IC50 [4]: 17 nM
remaining at 10 min, 0.5 µM [5]: 77%
remaining at 10 min, 0.5 µM [6]: 60%
remaining at 10 min, 0.5 µM [7]: 76%
